The values below come from paper PMC12516686, “Design of 2‑Aminobenzothiazole Derivatives Targeting Trypanosomatid PTR1 by a Multidisciplinary Fragment Hybridization Approach” (Journal of Medicinal Chemistry, 2025).

One series addresses T1, LmPTR1 (Leishmania major, UniProt Q01782).
T1 sequence (Q01782 1-288): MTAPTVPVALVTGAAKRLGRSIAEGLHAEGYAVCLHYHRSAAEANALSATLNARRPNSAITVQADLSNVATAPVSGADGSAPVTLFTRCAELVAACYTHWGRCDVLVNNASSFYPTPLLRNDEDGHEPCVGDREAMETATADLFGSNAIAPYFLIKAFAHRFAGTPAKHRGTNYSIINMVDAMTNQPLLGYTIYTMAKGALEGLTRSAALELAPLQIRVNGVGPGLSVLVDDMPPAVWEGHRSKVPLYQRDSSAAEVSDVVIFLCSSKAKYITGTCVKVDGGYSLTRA
The series is described as follows: LmPTR1 indirect (cytochrome c-coupled) enzyme assay. The format is biochemical. Particulars: for IC50: indirect assay, triplicate, SD within ± 10% of the value. As to the method:
The in vitro assays used in the current study were based on those reported in the literature. As PTR1 enzymes use dihydrobiopterin (H2B) as a substrate and also require NADPH for the reaction, the reduction of H2B to tetrahydrobiopterin by PTR1 is nonenzymatically linked with the reduction of cytochrome c in this assay, which is detected at 550 nm. The formation of cyt c Fe^2+ results in an increase in the photometric readout. TbPTR1 and LmPTR1 activity was assayed in a buffer containing 20 mM sodium citrate (pH 6.0). The final reaction mixture contained the test compound at a range of concentrations and TbPTR1/LmPTR1 (6.0 nM/12 nM), H2B (0.3 μM/3 μM), cytochrome c (100 μM/100 μM), and NADPH (500 μM/500 μM). The final assay volume was 50 μL in 384-well clear plates (Greiner Bio-One, 781101). Compound screening was performed by the addition of the compound to the assay plates (in 100% DMSO), followed by the addition of 45 μL Reaction Mix (enzyme, H2B cytochrome c in 20 mM sodium citrate buffer). A pre-read was made at 550 nm using an EnVision Multilabel Reader 2103 (PerkinElmer Inc., US), followed by incubation of the assay plates at 30 °C for 10 min. The reaction was initiated by the addition of 5 μL of NADPH (5 mM in ultrapure water) followed by kinetically reading the assay plates at 550 nm using the EnVision Multilabel Reader at 10, 20, 30, 40, and 50 min. The slope of each assay well was calculated. The screening data were analyzed using ActivityBase (IDBS), and for outlier elimination in the control wells, the 3-σ method was applied. Based on the slope, the data were normalized to the positive control methotrexate for TbPTR1/LmPTR1 (1 μM/50 μM, yielding 100% inhibition) and negative controls (1% DMSO, yielding 0% inhibition), and % inhibition was calculated for all samples. The measurement at time 0 min was used to flag optically interfering samples. Each compound was tested in triplicate, and the pIC50 value, standard deviation, Hill slope, and minimum and maximum signals for each dose–response curve were obtained using a 4-parameter logistic fit in the XE module of Activity Base (IDBS), as also reported previously. ,

Series [1] relates to Trypanosoma brucei brucei L427 wild-type (WT) bloodstream forms. Nature of the series: Activity against T. brucei (resazurin-based assay). The class given is cell-based. The note with it: Trypanosoma brucei; for inhibition at 10 µM: read-out: T. brucei % cell growth inhibition. Here is the method:
The parasites were grown in 5 mL T25 ventilated flasks containing complete HMI-9 medium. The medium was supplemented with 10% heat-inactivated FBS and 100 IU/mL penicillin/streptomycin. To maintain the cultures, subpassages were performed every 2 days at a concentration of 1 × 10^4 cells/mL.
The efficacy of the compounds against Trypanosoma brucei brucei L427 wild-type (WT) bloodstream forms was assessed using a resazurin-based assay as described elsewhere. T. b. brucei L427 bloodstream forms were prepared at a cell density of 5 × 10^3 cells/mL in supplemented complete medium. Serial dilutions of the test compounds were prepared in a final volume of 100 μL, and 100 μL of the parasite suspension was added to each well containing the compound dilutions, resulting in a total volume of 200 μL per well. A dose–response curve for pentamidine was included as a quality control in each assay, and each condition was tested in duplicate. The plates were incubated for 72 h under the specified conditions for the parasite. After the incubation period, 20 μL of a 0.5 mM resazurin solution was added to each well, and the plates were incubated for an additional 4 h under the same conditions. Fluorescence was measured at an excitation wavelength of 544 nm and an emission wavelength of 590 nm using a Synergy 2 Multi-Mode Reader (Biotek, Winooski, VT, USA). The results were expressed as the percentage of parasite growth inhibition compared to the control (untreated parasites) and represented the average of at least three independent experiments.

A short description of series [2]: Cytotoxicity assay (MTT) on THP-1-derived macrophages. The format is cell-based, Human. Particulars: human, THP-1-derived macrophages. As to the method: Human leukemia cell line THP-1 (ATCC TIB202) cells were cultured in RPMI-1640 medium supplemented with 10% heat-inactivated fetal bovine serum (FBS), 2 mM L-glutamine, 100 IU/mL penicillin/streptomycin, and 20 mM HEPES. The cell line was maintained in a humidified incubator at 37 °C with 5% CO2. Subcultures were performed every 3 days in 20 mL of media at a concentration of 2 × 10^5 cells/mL in a T75 flask. All cell culture reagents were purchased from Lonza Bioscience (Morrisville, NC).
The cytotoxicity of the compounds on THP-1-derived macrophages was assessed using the colorimetric MTT assay (3-(4,5-dimethylthiazol-2-yl)-2,5-diphenyl tetrazolium bromide) as described elsewhere. THP-1 cells were suspended in RPMI complete medium at a density of 1 × 10^6 cells/mL, and 100 μL/well was seeded in a 96-well plate. The cells were differentiated into macrophages by adding 40 ng/mL of phorbol-myristate 13-acetate (PMA, Sigma, Saint Louis, MI, USA) for 24 h, followed by replacement with fresh medium for another 24 h. Subsequently, the cells were incubated with 100 μL of compounds, ranging from 100 to 12.5 μM, diluted in RPMI complete medium. Each condition was tested in triplicate. After 72 h of incubation at 37 °C with 5% CO2, the medium was removed, and 200 μL of 0.5 mg/mL MTT solution diluted in RPMI was added. The plates were incubated for an additional 4 h, after which 160 μL of the media was removed and replaced with 160 μL of 2-propanol. Absorbance was read at 570 nm using a Synergy 2 Multi-Mode Reader (Biotek, Winooski, VT, USA). Cytotoxicity was evaluated by presenting the CC50 (the concentration of the drug that reduces cell viability by 50%) interval or by determining the CC50 value through nonlinear regression analysis using GraphPad Prism version 8.1.1 for Windows (GraphPad Software, San Diego, CA, USA). Results represent the average of at least three independent experiments.

The target in the next series is T2, CYP2D6 (Homo sapiens, UniProt P10635).
T2 construct: purchased Promega; host or cells: baculovirus-infected insect cells
Nature of the series: Cytochrome P450 assay (P450-Glo), isoform 2D6. The class given is in vitro ADME. The text has this:
3A4. The Promega P450-Glo assay platform was used with microsomal preparations of
cytochrome P450s from baculovirus-infected insect cells. […]

The mark [3] stands for this setting: cytotoxic concentration for THP1 cells, read-out: CC50 THP1.
Setting [4] is: lower limit of CC50 interval, read-out: THP1 CC50 lower limit.
The mark [5] stands for this setting: upper limit of CC50 interval, read-out: THP1 CC50 upper limit.
Where [6] appears, read: read-out: 95% confidence interval for EC50 (T. brucei).
[7] abbreviates: read-out: T. brucei EC50 (converted).

Each structure is given as a SMILES string. Where “and” joins values, the source holds several entries; their conditions need not be identical. Identical values can stand only once. Like-named read-outs stand apart in the source and are kept apart here. Bounds are passed on as bounds.

T2 sequence (P10635 whole entry): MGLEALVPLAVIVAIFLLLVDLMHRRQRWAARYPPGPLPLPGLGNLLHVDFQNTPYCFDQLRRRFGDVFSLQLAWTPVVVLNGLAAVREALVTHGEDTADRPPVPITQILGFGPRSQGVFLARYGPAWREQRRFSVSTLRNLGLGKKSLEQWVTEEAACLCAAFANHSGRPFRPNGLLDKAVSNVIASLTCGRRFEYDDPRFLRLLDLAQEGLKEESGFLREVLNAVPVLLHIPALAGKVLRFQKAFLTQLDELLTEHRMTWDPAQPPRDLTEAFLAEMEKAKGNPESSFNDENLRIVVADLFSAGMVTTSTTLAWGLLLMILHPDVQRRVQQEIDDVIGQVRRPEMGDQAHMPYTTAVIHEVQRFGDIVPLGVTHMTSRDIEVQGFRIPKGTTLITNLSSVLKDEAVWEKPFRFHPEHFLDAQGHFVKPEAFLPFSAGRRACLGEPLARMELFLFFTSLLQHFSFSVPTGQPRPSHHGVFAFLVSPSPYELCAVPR

One may read the inhibition as the share of the control response that was lost under treatment. As a reminder, the CC50 is the concentration that lowers cell viability or growth by half. On LmPTR1, `Nc1nc2ccc(C(=O)N(CCc3ccc(Cl)c(Cl)c3)c3ccccc3)cc2s1` [Compound 1e, 2-amino-N-(3,4-dichlorophenethyl)-N-phenylbenzo[d]thiazole-6-carboxamide] had an inhibition at 50 µM of 31 ± 2%. Also, the inhibition at 10 µM in series [1] (at 10 μM) was found to be 31%. The CC50 at 72 h in series [2] (setting [3]) was greater than 100 µM. Besides, the activity at 10 µM at CYP2D6 (human, at 10 µM compound concentration, read-out: CYP 2D6 % residual activity) turned out to be 59.9%.
The term IC50 denotes the concentration needed to halve the response being measured. Read a high IC50 as weaker potency in that assay. In turn, `Nc1nc2ccc(C(=O)NCCc3ccc(Br)cc3)cc2s1` [Compound 2e, 2-amino-N-(4-bromophenethyl)benzo[d]thiazole-6-carboxamide] returned an inhibition at 50 µM against LmPTR1 of 33 ± 1%. The values for the IC50 on LmPTR1 and against CYP2D6 were 78.8 µM and 0.1 µM, respectively. The inhibition at 10 µM in series [1] (at 10 μM) was 37%. In addition, the figures for the CC50 at 72 h in series [2] (setting [4]) and in series [2] (setting [5]) were greater than 25 µM and less than 50 µM, respectively.
With `Nc1nc2ccc(C(=O)NCCc3cccc(Br)c3)cc2s1` [Compound 2d, 2-amino-N-(3-bromophenethyl)benzo[d]thiazole-6-carboxamide], at LmPTR1, testing at 50 µM gave an inhibition of 57 ± 2%. Moreover, the inhibition at 10 µM in series [1] (at 10 μM) was determined as 39 ± 5%. Besides, the CC50 at 72 h is greater than 50 µM in series [2] (setting [4]) and less than 100 µM in series [2] (setting [5]). Further, at CYP2D6, the IC50 stood at 5 µM.
In the case of `Nc1nc2ccccc2n1Cc1ccc(Cl)c(Cl)c1` [I, 1-(3,4-dichlorobenzyl)-1H-benzimidazol-2-amine, reference compound], the inhibition at 50 µM on LmPTR1 was 75 ± 1%. In series [1] (at 10 μM), the inhibition at 10 µM is less than 0%. For the same molecule, the CC50 at 72 h in series [2] (setting [3]) is 8 µM.
As usually defined, the EC50 is the concentration giving half of the maximal effect. `Nc1nc2ccc(C(=O)N(CCc3ccc(Cl)c(Cl)c3)C3CC3)cc2s1` [Compound 1b, 2-amino-N-cyclopropyl-N-(3,4-dichlorophenethyl)benzo[d]thiazole-6-carboxamide]: at 50 µM the inhibition against LmPTR1 was 72 ± 4%. Also, the IC50 was 39 µM and 38.9 µM against LmPTR1; 0.9 µM against CYP2D6. Further, in series [1] (at 10 μM), the inhibition at 10 µM was 97%. Further, the EC50 in series [1] (setting [6]) is 4.45 to 5.88 µM; in series [1] (setting [7]) it was 5 µM. Moreover, the CC50 at 72 h was 25 to 50 µM in series [2] (setting [3]), greater than 25 µM in series [2] (setting [4]) and less than 50 µM in series [2] (setting [5]).
As for `Nc1nc2ccc(CN(Cc3ccc(Cl)c(Cl)c3)C3CC3)cc2s1` [Compound 1d, 6-((cyclopropyl(3,4-dichlorobenzyl)amino)methyl)benzo[_d_]thiazol-2-amine], the inhibition at 50 µM at LmPTR1 came out at 38 ± 4%. For the same molecule, the inhibition at 10 µM in series [1] (at 10 μM) was 59 ± 2%. Besides, the values for the CC50 at 72 h in series [2] (setting [3]), in series [2] (setting [4]) and in series [2] (setting [5]) were 25 to 50 µM, greater than 25 µM and less than 50 µM, respectively. In addition, 2.5 µM corresponded to half-maximal inhibition on CYP2D6 (IC50).
As to `Nc1nc2ccc(C(=O)NCCc3ccc(Cl)cc3)cc2s1` [Compound 2c, 2-amino-N-(4-chlorophenethyl)benzo[d]thiazole-6-carboxamide], at LmPTR1, 50 µM produced 32 ± 2% inhibition. Besides, the inhibition at 10 µM in series [1] (at 10 μM) is 27%. Further, the CC50 at 72 h in series [2] (setting [4]) is greater than 50 µM; in series [2] (setting [5]), less than 100 µM. It took 0.5 µM to reach half-maximal inhibition on CYP2D6 (IC50).
Molecule `Nc1nc2ccc(C(=O)NCCc3cccc(Cl)c3)cc2s1` [Compound 2b, 2-amino-N-(3-chlorophenethyl)benzo[d]thiazole-6-carboxamide] yielded an inhibition at 50 µM at LmPTR1 of 48 ± 2%. The IC50 against LmPTR1 is 91.4 µM; against CYP2D6, 0.9 µM. Further, the inhibition at 10 µM in series [1] was determined as 51%. In addition, the CC50 at 72 h in series [2] (setting [4]) is greater than 50 µM; in series [2] (setting [5]) it was less than 100 µM.
Consider `Nc1nc2ccc(C(=O)N(Cc3ccc(Cl)c(Cl)c3)C3CC3)cc2s1` [Compound 1c, 2-amino-N-cyclopropyl-N-(3,4-dichlorobenzyl)benzo[d]thiazole-6-carboxamide], for which at 50 µM the inhibition against LmPTR1 was 26 ± 5%. The inhibition at 10 µM in series [1] (at 10 μM) was 18 ± 8%. The CC50 at 72 h in series [2] (setting [3]) was greater than 100 µM. At CYP2D6, the IC50 is 2.5 µM.
In the case of `Nc1nc2ccc(C(=O)NCCc3ccccc3)cc2s1` [Compound 2a, 2-amino-N-phenethylbenzo[d]thiazole-6-carboxamide], the inhibition at 50 µM at LmPTR1 turned out to be 35 ± 1%. In series [1] (at 10 μM), the inhibition at 10 µM was 27%. Also, in series [2] (setting [3]), the CC50 at 72 h is greater than 100 µM. The “CYP 2D6 IC50” value at CYP2D6 is given as “max”.
Turning to `Nc1nc2ccc(C(=O)NCCc3ccc(Cl)c(Cl)c3)cc2s1` [Compound 1a, 2-amino-N-(3,4-dichlorophenethyl)benzo[d]thiazole-6-carboxamide], the inhibition at 50 µM at LmPTR1 came out at 21 ± 2%. Further, the inhibition at 10 µM in series [1] (at 10 μM) is 100%. The EC50 is 2.83 to 3.37 µM in series [1] (setting [6]) and 3.1 µM in series [1] (setting [7]). The CC50 at 72 h was greater than 50 µM in series [2] (setting [4]) and less than 100 µM in series [2] (setting [5]). The concentration for half-maximal inhibition (IC50) against CYP2D6 was 0.1 µM.
